Reference: US20250177340A1, “Tartaric Acid Analogs and Uses Thereof” (Lapix Therapeutics, Inc., priority 2021, published 2025)

Assays:
Granzyme B and IFN-γ = assay: Dose-response of GranzymeB/IFN-γ double positivity in murine CD8+ T-cells, Example 9; format: cell-based, C57BL/6 mice; conditions: Mus musculus, T-cell
Experimental: A dose-response analysis of compounds B-E in murine CD8+ T-cells was conducted to evaluate the effect of dose on GranzymeB/IFN-γ double positivity.
Compound C, D and E were first dissolved in a small volume of DMSO before diluting to the final desired concentration.
Splenocytes from naïve C57BL/6 mice were stained with CFSE, prepared, cultured, and dosed. Cells were seeded at 2×10^5 cells/well. Negative control was dosed with 10 ng/ml IL-2. After ConA stimulation (10 μg/ml), cells were dosed with log 3 dilution of each compound from 3×10^−9 to 30 µM in triplicates. All wells were dosed with 10 ng/ml of IL-2.
Flow cytometer analysis was performed to assess percent CD8+ T-cells and percent activation by double staining for Granzyme B (GzmB) and IFN-γ as described in Example 7. Concentration versus response curve was fitted to a 4- or 5-parameter log-logistic model using the “dre” package in “R”. Both EC50 and EC90 were obtained by model fitting.

KLRG-1 = assay: Percent KLRG-1+/CD8+ T-cells in splenocytes after a single dose, melanoma murine model; format: in vivo, mice
Experimental: (§1) The pharmacodynamic (PD) effects of a single IV dose of Compound B in a melanoma murine model were evaluated. B16F10 melanoma cells were grown in RPMI 1640 media supplemented with 10% FBS and antibiotics (penicillin/streptomycin) using T75 flasks. When cells reached 70-80% confluency, they were treated with 3 ml of 0.25% Trypsin/EDTA. Afterward, detached cells were harvested. A single-cell suspension was prepared in PBS. An IV injection of 10^5 cells in mice marked day −3 of the experiment.
(§2) Animals were housed four per cage, and had access to food and water ad libitum. Compound B was dissolved in sterile PBS, and pH was adjusted to approximately 7.5. Sterile PBS served as control.
(§3) Three days after the IV injection of melanoma cells, animals in the baseline group (n=3) were sacrificed and their spleens were collected for KLRG-1, CTLA-4, and PD-1 analysis. At each predetermined time-point (24, 48, and 120 hours after dosing) three animals from each group were sacrificed for splenocyte analysis of KLRG-1, CTLA-4, and PD-1 expression levels, and expression levels were compared to baseline.
(§4) Spleens collected for splenocyte analysis were prepared into a single-cell suspension for cellular phenotyping by flow cytometry. Cells were stained and gated for CD8. Percent KLRG-1+, CTLA-4+, and PD-1+ CD8+ T-cells were evaluated using flow cytometry.
(§5) The PD effects of a single IV dose of Compound C were evaluated in a melanoma murine model conducted as described in Example 10. […] This study also evaluated whether Compound C was pharmacodynamically active orally.
(§6) In a prior study, Compound C was dosed at 1 mg IV QD for seven days. […] A single PO dose was chosen to confirm oral activity of Compound C. Compound C was dissolved in DMSO, and then diluted in sterile PBS. pH was adjusted to approximately 7.5.
(§7) The oral and intravenous PD effects of a single dose of Compound E were evaluated in a melanoma murine model conducted as described in Example 10.
(§8) Compound E was dissolved in DMSO, and then diluted in sterile PBS. pH was adjusted to approximately 7.5.

PD-1 [1] = assay: Percent PD-1+/CD8+ T-cells in splenocytes after a single dose, melanoma murine model; format: in vivo, mice
Experimental: as §1, §2, §3, §4, §5, §6, §7, §8

Oral bioavailability = format: in vivo; conditions: mouse, in vivo; suggested from 2.5 mg oral dose as efficacious as 0.25 mg IV; not evaluated in a PK study
KLRG1 = assay: Percent KLRG1+ T-cells in spleens, single dose on Day 7 (Examples 17, 19, 20); format: in vivo, C57BL6 mice
Experimental: (§9) Melanoma B16F10 cells were injected IV into C57BL6 mice on Day 0. On Day 7, mice were administered a single dose of 0.1 mg, 0.25 mg, or 1 mg of Compound E IV or 2.5 mg Compound E PO. One group was left untreated. Three mice at each time point were sacrificed, and their spleens were extracted. Percent KLRG1+ and PD-1^+ T-cells were quantified. Briefly, single-cell suspensions prepared from the extracted spleens were prepared and stained for KLRG1, PD-1 and CD8, and analyzed by flow cytometry.
as §9, with “of 0.03 mg,” for “of”, “0.3 mg” for “0.25 mg,”, “mg” for “mg of”, “F” for “E”, “1” for “2.5”
as §9, with “0.4” for “0.25”, “mg” for “mg of”, “G” for “E”, “1” for “2.5”

PD-1 [2] = assay: Percent PD-1+ T-cells in spleens, single dose on Day 7 (Examples 17, 19, 20); format: in vivo, C57BL6 mice; conditions: E 0.1, 0.25, 1 mg IV or 2.5 mg PO, F 0.03-1 mg IV or 1 mg PO, G 0.1, 0.4, 1 mg IV or 1 mg PO
Experimental: as §9
as §9, with “of 0.03 mg,” for “of”, “0.3 mg” for “0.25 mg,”, “mg” for “mg of”, “F” for “E”, “1” for “2.5”
as §9, with “0.4” for “0.25”, “mg” for “mg of”, “G” for “E”, “1” for “2.5”

B16 F10 melanoma cells = assay: Tumor growth inhibition using Compound E (Example 18); format: in vivo, C57BL/6 mice; conditions: 0.3 or 3 mg orally daily for seven days
Experimental: C57BL/6 mice received 10^5 B16 F10 melanoma cells via SC injection on day 0. At day 7, mice were treated orally with Compound E at 0.3 or 3 mg daily for seven days. Tumor growth inhibition was monitored until all untreated animals reached end point, defined as death by disease (found dead in the cage) or tumor size of 1,000 mm^3 or greater.

[3] = 0.1 mg/mouse IV single dose, 24 h
[4] = 0.1 mg/mouse IV single dose, 48 h
[5] = 0.1 mg/mouse IV single dose, 120 h
[6] = 0.25 mg/mouse IV single dose, 24 h
[7] = 0.25 mg/mouse IV single dose, 48 h
[8] = 0.25 mg/mouse IV single dose, 120 h
[9] = 1 mg/mouse IV single dose, 24 h
[10] = 1 mg/mouse IV single dose, 48 h
[11] = 1 mg/mouse IV single dose, 120 h
[12] = 2.5 mg/mouse po single dose, 24 h
[13] = 2.5 mg/mouse po single dose, 48 h
[14] = 2.5 mg/mouse po single dose, 120 h

O=C(O)[C@H](O)[C@@H](O)C(=O)NCCC(c1ccccc1)c1ccccc1 [Compound E, (2R,3R)-4-((3,3-diphenylpropyl)amino)-2,3-dihydroxy-4-oxobutanoic acid]
EC50 (Granzyme B and IFN-γ; 4-parameter model): 93 nM | EC90 (Granzyme B and IFN-γ; 4-parameter model): 120000 nM | EC50 (Granzyme B and IFN-γ; 5-parameter model): 23 nM | EC90 (Granzyme B and IFN-γ; 5-parameter model): 600 nM | Emax (Granzyme B and IFN-γ; FIG. 4, 5-parameter fit, read-out: maximal response (GzmB/IFN-γ double positive CD8+ T-cells)): ~60% | KLRG-1+/CD8+ T-cells, mean (KLRG-1; [3]): 0.7% | KLRG-1+/CD8+ T-cells, mean (KLRG-1; [4]): 1.2% | KLRG-1+/CD8+ T-cells, mean (KLRG-1; [5]): 1.0% | KLRG-1+/CD8+ T-cells, mean (KLRG-1; [6]): 0.6% | KLRG-1+/CD8+ T-cells, mean (KLRG-1; [7]): 0.9% | KLRG-1+/CD8+ T-cells, mean (KLRG-1; [8]): 0.6% | KLRG-1+/CD8+ T-cells, mean (KLRG-1; [9]): 1.3% | KLRG-1+/CD8+ T-cells, mean (KLRG-1; [10]): 0.6% | KLRG-1+/CD8+ T-cells, mean (KLRG-1; [11]): 1.2% | oral pharmacodynamic activity (KLRG-1; 2.5 mg PO single dose): effective after oral administration | KLRG-1+/CD8+ T-cells, mean (KLRG-1; [12]): 0.6% | KLRG-1+/CD8+ T-cells, mean (KLRG-1; [13]): 1.9% | KLRG-1+/CD8+ T-cells, mean (KLRG-1; [14]): 1.2% | time of nadir of exhaustion markers after dosing (KLRG-1; single dose, KLRG-1, CTLA-4, PD-1): 24 h | PD-1+/CD8+ T-cells, mean (PD-1 [1]; [3]): 35% | PD-1+/CD8+ T-cells, mean (PD-1 [1]; [4]): 26% | PD-1+/CD8+ T-cells, mean (PD-1 [1]; [5]): 37% | PD-1+/CD8+ T-cells, mean (PD-1 [1]; [6]): 23% | PD-1+/CD8+ T-cells, mean (PD-1 [1]; [7]): 26% | PD-1+/CD8+ T-cells, mean (PD-1 [1]; [8]): 32% | PD-1+/CD8+ T-cells, mean (PD-1 [1]; [9]): 23% | PD-1+/CD8+ T-cells, mean (PD-1 [1]; [10]): 30% | PD-1+/CD8+ T-cells, mean (PD-1 [1]; [11]): 29% | PD-1+/CD8+ T-cells, mean (PD-1 [1]; [12]): 25% | PD-1+/CD8+ T-cells, mean (PD-1 [1]; [13]): 32% | PD-1+/CD8+ T-cells, mean (PD-1 [1]; [14]): 30% | decrease from baseline in PD-1+/CD8+ T-cell (PD-1 [1]; single dose, 0.25 mg or higher, 24 hours): approximately 39% | bioavailability (Oral bioavailability): ≥ 10% | activity after oral administration (KLRG1+, PD1+ T-cells) (KLRG1; single PO dose: E 2.5 mg, F 1 mg, G 1 mg): effective after oral administration | percent KLRG1+ T-cells compared to untreated animals (KLRG1; single dose, E 0.1, 0.25, 1 mg IV or 2.5 mg PO, F 0.03-1 mg IV or 1 mg PO, G 0.1, 0.4, 1 mg IV or 1 mg PO): reduction | percent PD1+ T-cells compared to untreated animals (PD-1 [2]): reduction | tumor growth (B16 F10 melanoma cells): dose-dependent inhibition of tumor growth
